The source of these data is US20250228835A1, “PYRIDINYLOXYPYRIDINES AND RELATED COMPOUNDS AND THEIR USE IN TREATING MEDICAL CONDITIONS” (Rectify Pharmaceuticals, Inc., priority 2024, published 2025).

Common to all, as to assay type: cell-based
Assay [1] concerns the target T1, ABCC6 WT (Homo sapiens, UniProt O95255).
T1 construct: expressed in transfected cells; host or cells: HEK-293 (transient, Lipofectamine 2000)
As to the kind of experiment: ABCC6 WT assay: HiBit protein expression. To be noted: HEK-293 cells transiently expressing HiBit-tagged ABCC6 WT; 24 h treatment; top concentration 20 μM; read-out: ABCC6 WT EC50, Emax. Summed up: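 HEK-293 cells transiently transfected with HiBit-tagged human ABCC6 WT cDNA, seeded 24 h post-transfection, treated 24 h at 37° C with ten 2-fold doses (top 20 μM final, 0.15% DMSO). HiBit lytic luminescence reports protein expression; Emax and EC50 derived.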

Assay [2] has as its target T2, ABCA4 P1380L (Homo sapiens, UniProt P78363, P1380L).
T2 construct: expressed in transfected cells
Nature of the assay: A4 correction dose-response assay: ABCA4 P1380L HiBit protein expression. To be noted: HEK-293 cells stably expressing HiBit-tagged ABCA4 P1380L; 24 h treatment; top concentration 30 μM; read-out: ABCA4 P1380L EC50, Emax. Summed up: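 Cells transfected with HiBit-tagged human ABCA4 P1380L cDNA were treated for 24 h at 37°C with an eleven-point dilution series (top final 30 μM, 0.3% DMSO).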

In assay [3] the target is T3, ABCB4 WT (Homo sapiens, UniProt P21439).
T3 construct: expressed in transfected cells
As to the kind of experiment: ABCB4 WT assay: HiBit protein expression. To be noted: HEK-293 cells stably expressing HiBit-tagged ABCB4 WT; 24 h treatment; top concentration 30 μM; read-out: ABCB4 WT EC50, Emax. In a few lines: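 HEK-293 cells stably expressing HiBit-tagged human ABCB4 WT, treated 24 h at 37 °C with 11-dose 3-fold dilutions, top final 30 μM in 0.3% DMSO. HiBit lytic reagent luminescence read after 1 h at 25 °C; Emax and EC50 derived.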

Structures are written as SMILES.

T1 sequence (O95255 whole entry): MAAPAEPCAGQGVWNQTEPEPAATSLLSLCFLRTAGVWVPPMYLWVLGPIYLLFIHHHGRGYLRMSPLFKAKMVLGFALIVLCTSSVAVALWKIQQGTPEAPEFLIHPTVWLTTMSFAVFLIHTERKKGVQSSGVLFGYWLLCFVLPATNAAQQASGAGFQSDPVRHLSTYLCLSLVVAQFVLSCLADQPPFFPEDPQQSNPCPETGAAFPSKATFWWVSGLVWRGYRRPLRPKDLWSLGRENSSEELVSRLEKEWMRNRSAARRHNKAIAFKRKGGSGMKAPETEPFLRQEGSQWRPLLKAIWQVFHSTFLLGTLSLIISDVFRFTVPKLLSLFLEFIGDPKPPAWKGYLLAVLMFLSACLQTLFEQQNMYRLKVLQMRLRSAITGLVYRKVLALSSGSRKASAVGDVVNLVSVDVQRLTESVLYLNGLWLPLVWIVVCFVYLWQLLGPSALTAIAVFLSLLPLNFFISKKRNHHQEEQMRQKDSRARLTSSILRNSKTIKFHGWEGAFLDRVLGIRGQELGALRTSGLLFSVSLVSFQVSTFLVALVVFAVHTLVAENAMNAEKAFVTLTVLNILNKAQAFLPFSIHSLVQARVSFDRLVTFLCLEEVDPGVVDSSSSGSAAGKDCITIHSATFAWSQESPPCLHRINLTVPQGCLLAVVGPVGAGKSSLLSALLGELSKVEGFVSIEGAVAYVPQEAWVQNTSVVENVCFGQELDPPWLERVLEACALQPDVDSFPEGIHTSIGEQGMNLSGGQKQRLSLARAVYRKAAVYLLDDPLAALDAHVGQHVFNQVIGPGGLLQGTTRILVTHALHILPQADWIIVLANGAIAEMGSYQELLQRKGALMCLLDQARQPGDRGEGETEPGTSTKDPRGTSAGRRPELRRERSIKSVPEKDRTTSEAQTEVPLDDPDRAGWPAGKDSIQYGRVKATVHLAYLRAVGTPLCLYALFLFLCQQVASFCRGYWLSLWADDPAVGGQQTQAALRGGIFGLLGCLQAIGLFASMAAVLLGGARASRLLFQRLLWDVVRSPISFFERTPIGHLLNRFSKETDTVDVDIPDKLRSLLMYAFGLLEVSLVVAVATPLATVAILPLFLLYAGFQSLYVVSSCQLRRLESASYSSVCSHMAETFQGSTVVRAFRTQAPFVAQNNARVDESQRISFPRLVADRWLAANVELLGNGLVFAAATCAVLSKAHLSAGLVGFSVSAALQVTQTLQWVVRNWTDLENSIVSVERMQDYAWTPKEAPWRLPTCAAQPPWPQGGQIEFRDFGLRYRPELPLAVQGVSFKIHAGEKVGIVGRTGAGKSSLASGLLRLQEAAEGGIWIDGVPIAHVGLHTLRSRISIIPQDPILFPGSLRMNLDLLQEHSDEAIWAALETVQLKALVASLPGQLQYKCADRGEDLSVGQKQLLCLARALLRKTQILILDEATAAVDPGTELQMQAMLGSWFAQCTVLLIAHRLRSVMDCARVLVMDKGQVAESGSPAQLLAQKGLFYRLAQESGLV
T3 sequence (P21439 whole entry): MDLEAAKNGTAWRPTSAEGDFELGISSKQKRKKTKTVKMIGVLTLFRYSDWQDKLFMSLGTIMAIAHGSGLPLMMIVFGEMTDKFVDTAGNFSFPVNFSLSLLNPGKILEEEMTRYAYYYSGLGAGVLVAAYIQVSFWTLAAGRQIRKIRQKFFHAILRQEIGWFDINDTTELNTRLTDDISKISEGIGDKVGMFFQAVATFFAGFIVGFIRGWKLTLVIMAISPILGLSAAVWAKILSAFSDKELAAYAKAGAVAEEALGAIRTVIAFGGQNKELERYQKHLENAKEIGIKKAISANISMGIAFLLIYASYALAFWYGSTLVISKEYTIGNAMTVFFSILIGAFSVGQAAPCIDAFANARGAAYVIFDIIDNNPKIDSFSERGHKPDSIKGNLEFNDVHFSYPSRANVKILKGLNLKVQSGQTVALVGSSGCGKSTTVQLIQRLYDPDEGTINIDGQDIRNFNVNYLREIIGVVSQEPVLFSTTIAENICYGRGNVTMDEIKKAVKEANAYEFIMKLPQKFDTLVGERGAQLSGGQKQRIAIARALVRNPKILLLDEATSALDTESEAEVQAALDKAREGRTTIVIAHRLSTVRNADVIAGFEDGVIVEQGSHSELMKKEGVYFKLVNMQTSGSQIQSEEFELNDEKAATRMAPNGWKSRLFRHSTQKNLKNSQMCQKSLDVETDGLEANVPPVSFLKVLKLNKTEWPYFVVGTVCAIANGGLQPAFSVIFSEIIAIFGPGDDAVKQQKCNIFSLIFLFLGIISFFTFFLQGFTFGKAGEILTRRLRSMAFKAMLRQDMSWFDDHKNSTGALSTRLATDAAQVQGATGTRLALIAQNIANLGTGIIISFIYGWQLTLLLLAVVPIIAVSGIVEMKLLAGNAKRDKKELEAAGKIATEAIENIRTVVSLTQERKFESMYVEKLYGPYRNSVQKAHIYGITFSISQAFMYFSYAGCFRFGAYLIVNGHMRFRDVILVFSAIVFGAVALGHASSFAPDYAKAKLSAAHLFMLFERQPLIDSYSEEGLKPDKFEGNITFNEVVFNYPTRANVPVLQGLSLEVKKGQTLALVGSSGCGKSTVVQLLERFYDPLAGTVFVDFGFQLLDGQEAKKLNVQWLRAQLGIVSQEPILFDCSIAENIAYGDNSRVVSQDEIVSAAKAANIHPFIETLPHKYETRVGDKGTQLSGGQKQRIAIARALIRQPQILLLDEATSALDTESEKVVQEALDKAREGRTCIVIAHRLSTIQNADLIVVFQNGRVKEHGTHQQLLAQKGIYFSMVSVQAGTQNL
T2 sequence (P78363 whole entry P1380L): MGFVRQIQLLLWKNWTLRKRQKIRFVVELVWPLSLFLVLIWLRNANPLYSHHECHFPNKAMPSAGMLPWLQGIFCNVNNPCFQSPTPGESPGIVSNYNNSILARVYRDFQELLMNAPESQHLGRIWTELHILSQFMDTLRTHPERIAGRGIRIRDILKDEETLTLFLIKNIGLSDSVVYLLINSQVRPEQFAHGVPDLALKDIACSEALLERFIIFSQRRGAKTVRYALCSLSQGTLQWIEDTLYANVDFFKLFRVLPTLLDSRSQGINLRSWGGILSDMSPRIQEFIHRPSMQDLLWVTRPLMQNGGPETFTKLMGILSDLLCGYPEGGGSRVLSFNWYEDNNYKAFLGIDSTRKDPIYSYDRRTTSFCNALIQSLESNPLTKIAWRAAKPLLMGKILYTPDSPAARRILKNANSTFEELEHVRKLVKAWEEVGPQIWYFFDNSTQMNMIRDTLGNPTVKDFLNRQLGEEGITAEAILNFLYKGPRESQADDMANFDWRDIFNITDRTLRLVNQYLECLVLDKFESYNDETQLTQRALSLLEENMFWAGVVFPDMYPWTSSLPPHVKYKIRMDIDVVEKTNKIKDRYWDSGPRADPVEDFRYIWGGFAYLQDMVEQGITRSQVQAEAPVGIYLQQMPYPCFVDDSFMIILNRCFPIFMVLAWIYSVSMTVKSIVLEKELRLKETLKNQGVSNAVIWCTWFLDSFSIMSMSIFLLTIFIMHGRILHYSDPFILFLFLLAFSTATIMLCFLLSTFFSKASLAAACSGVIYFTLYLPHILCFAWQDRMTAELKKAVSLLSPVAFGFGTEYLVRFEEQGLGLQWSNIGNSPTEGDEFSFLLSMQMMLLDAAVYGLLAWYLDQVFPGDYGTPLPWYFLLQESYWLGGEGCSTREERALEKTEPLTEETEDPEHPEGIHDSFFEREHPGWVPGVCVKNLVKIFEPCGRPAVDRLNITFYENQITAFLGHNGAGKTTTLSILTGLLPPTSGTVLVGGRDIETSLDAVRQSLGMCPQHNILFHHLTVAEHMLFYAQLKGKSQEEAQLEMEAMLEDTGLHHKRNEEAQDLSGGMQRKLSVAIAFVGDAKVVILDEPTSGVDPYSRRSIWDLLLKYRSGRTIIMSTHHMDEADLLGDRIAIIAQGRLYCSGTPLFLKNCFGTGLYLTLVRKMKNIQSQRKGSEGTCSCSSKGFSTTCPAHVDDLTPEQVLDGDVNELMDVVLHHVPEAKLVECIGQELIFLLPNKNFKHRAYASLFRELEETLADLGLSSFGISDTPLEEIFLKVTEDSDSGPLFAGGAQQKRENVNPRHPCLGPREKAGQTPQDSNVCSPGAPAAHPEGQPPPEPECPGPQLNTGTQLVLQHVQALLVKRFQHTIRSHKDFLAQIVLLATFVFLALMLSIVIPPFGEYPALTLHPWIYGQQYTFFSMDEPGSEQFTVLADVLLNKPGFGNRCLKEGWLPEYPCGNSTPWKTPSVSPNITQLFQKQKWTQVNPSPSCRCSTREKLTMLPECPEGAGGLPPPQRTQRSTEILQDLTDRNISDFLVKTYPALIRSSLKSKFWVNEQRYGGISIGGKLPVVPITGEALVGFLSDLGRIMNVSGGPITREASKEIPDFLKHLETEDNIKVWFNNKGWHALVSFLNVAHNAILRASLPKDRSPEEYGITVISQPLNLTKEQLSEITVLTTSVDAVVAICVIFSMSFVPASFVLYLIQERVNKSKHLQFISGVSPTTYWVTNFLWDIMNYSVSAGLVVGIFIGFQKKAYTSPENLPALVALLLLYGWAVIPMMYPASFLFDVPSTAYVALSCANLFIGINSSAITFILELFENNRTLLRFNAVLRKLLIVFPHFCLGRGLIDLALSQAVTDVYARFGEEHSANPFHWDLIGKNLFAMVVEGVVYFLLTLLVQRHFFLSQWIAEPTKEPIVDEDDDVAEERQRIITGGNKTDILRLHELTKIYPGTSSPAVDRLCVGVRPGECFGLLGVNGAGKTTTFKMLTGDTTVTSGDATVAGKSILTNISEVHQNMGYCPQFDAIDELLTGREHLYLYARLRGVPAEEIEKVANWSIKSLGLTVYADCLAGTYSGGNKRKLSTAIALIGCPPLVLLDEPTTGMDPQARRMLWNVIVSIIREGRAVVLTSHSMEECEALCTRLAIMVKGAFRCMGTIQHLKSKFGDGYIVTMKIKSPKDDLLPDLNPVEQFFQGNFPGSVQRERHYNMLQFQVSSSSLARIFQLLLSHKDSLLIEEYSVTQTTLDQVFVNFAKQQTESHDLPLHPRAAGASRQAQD

For `Cc1cc(C)c(Oc2nc(-n3cc(C)cn3)ccc2NS(C)(=O)=O)c(C)c1` [Compound I-11], the values for the EC50 in assay [1], in assay [2] and in assay [3] were 1000 to 10000 nM, more than 25000 nM and not below 25000 nM, respectively.

Turning to `Cc1cc(C)c(Oc2nc(-n3cnc(C)c3)ccc2NS(C)(=O)=O)c(C)c1` [Compound I-12], the EC50 in assay [1] was less than 1000 nM; in assay [2] it was more than 25000 nM; in assay [3], less than 25000 nM.

As for `Cc1cc(C)c(Oc2nc(-c3cnn(C)c3C)ccc2NS(C)(=O)=O)c(C)c1` [Compound I-13], the figures for the EC50 in assay [1], in assay [2] and in assay [3] were less than 1000 nM, 1000 to 10000 nM and 1000 to 10000 nM, respectively.

As for `Cc1cc(C)c(Oc2nc(-c3cnn(C)c3)ccc2NS(C)(=O)=O)c(C)c1` [Compound I-14], the concentration for a half-maximal effect (EC50) was 1000 to 10000 nM in assay [1], more than 25000 nM in assay [2] and not below 25000 nM in assay [3].

In the case of `Cc1cc(C)c(Oc2nc(N3CCN(C(=O)C4(C)CC4)CC3)ccc2NS(C)(=O)=O)c(C)c1` [Compound I-15], the half-maximal effective concentration (EC50) in assay [1], in assay [2] and in assay [3] was 1000 to 10000 nM each time.

Consider `COC(=O)N1CCN(c2ccc(NS(C)(=O)=O)c(Oc3c(C)cc(C)cc3C)n2)CC1` [Compound I-16], for which the concentration giving a half-maximal response (EC50) is 1000 to 10000 nM in assay [1], more than 25000 nM in assay [2] and not below 25000 nM in assay [3].

`CC(=O)N1CCN(c2ccc(NS(C)(=O)=O)c(Oc3c(C)cc(C)cc3C)n2)CC1` [Compound I-17]: the half-maximal effective concentration (EC50) was 1000 to 10000 nM in assay [1], more than 25000 nM in assay [2] and not below 25000 nM in assay [3].

Regarding `Cc1nc(Oc2nc(-c3cncc(C#N)c3)ccc2NS(C)(=O)=O)c(C)s1` [Compound I-107], the EC50 is less than 1000 nM in assay [1], more than 25000 nM in assay [2] and not below 25000 nM in assay [3].

Consider `Cc1cc(Oc2nc(-c3cncc(C#N)c3)ccc2NS(C)(=O)=O)nn1C` [Compound I-113], for which the concentration for a half-maximal effect (EC50) in assay [1] is 1000 to 10000 nM; in assay [2], less than 25000 nM; in assay [3], less than 25000 nM.

In the case of `Cc1nn(C)c(C)c1Oc1nc(-c2cncc(C#N)c2)ccc1NS(C)(=O)=O` [Compound I-115], the results for the EC50 in assay [1], in assay [2] and in assay [3] were less than 1000 nM, less than 25000 nM and less than 1000 nM, respectively.

`Cc1cc(C)c(Oc2nc(-c3cncc(S(C)(=N)=O)c3)ccc2NS(C)(=O)=O)c(C)n1` (stereo not drawn) [Compound I-116]: the results for the EC50 in assay [1], in assay [2] and in assay [3] were not below 25000 nM, more than 25000 nM and not below 25000 nM, respectively.

On to `Cc1nc(C2CC2)c(Cl)cc1Oc1nc(-c2cncc(C#N)c2)ccc1NS(C)(=O)=O` [Compound I-120], for which the EC50 was less than 1000 nM in assay [1], less than 1000 nM in assay [2] and less than 25000 nM in assay [3].

For the molecule `Cc1cc(Oc2nc(-c3cncc(C#N)c3)ccc2NS(C)(=O)=O)c(C)nc1C1CC1` [Compound I-127], the EC50 was less than 1000 nM in assay [1], 1000 to 10000 nM in assay [2] and less than 1000 nM in assay [3].

On to `Cc1cc(OC(F)(F)F)nc(C)c1Oc1nc(-c2cncc(C#N)c2)ccc1NS(C)(=O)=O` [Compound I-131], for which the concentration for a half-maximal effect (EC50) in assay [1], in assay [2] and in assay [3] was less than 1000 nM each time.

Turning to `Cc1cc(OC2CC2)nc(C)c1Oc1nc(-c2cncc(C#N)c2)ccc1NS(C)(=O)=O` [Compound I-132], the EC50 in assay [1], in assay [2] and in assay [3] was less than 1000 nM throughout.

Take `Cc1nc(C)c(Oc2nc(-c3cncc(C#N)c3)ccc2NS(C)(=O)=O)c(C2CC2)n1` [Compound I-165]: the EC50 is less than 1000 nM in assay [1], 1000 to 10000 nM in assay [2] and 1000 to 10000 nM in assay [3].

Turning to `Cc1cc(C)c(Oc2nc(-c3cncc(C#N)c3)ccc2N(C)S(C)(=O)=O)c(C)n1` [Compound I-166], the EC50 in assay [1], in assay [2] and in assay [3] was 1000 to 10000 nM throughout.

As to `CNS(=O)(=O)c1ccc(-c2cncc(C#N)c2)nc1Oc1c(C)nc(C(F)(F)F)nc1C` [Compound I-167], the concentration giving a half-maximal response (EC50) in assay [1], in assay [2] and in assay [3] was 1000 to 10000 nM each time.

On to `CNS(=O)(=O)c1ccc(-c2cncc(C#N)c2)nc1Oc1c(C)cc(C(F)(F)F)nc1C` [Compound I-168], for which the EC50 in assay [1], in assay [2] and in assay [3] was 1000 to 10000 nM in each case.

In the case of `Cc1nc(N2CC(S(C)(=O)=O)C2)nc(C)c1Oc1nc(-c2cncc(C#N)c2)ccc1NS(C)(=O)=O` [Compound I-169], the concentration giving a half-maximal response (EC50) in assay [1], in assay [2] and in assay [3] was 1000 to 10000 nM in each case.

With `Cc1nc(N2CC(F)(F)C2)nc(C)c1Oc1nc(-c2cncc(C#N)c2)ccc1NS(C)(=O)=O` [Compound I-170], the EC50 in assay [1], in assay [2] and in assay [3] was less than 1000 nM throughout.

For `Cc1cc(C2CC2)c(Oc2nc(-c3cncc(C#N)c3)ccc2NS(C)(=O)=O)c(C)n1` [Compound I-171], the half-maximal effective concentration (EC50) in assay [1], in assay [2] and in assay [3] was less than 1000 nM in each case.

With `Cc1cc(C)c(Oc2nc(-c3cncc(C#N)c3)ccc2NS(=O)(=O)C2(C)CC2)c(C)n1` [Compound I-172], the concentration giving a half-maximal response (EC50) was 1000 to 10000 nM in assay [1], less than 1000 nM in assay [2] and less than 1000 nM in assay [3].

With `Cc1nc(C(F)F)nc(C)c1Oc1nc(-c2cncc(C#N)c2)ccc1NS(C)(=O)=O` [Compound I-173], the concentration for a half-maximal effect (EC50) in assay [1], in assay [2] and in assay [3] was less than 1000 nM each time.

Regarding `Cc1nc(C2COC2)nc(C)c1Oc1nc(-c2cncc(C#N)c2)ccc1NS(C)(=O)=O` [Compound I-174], the EC50 in assay [1] was less than 1000 nM; in assay [2], 1000 to 10000 nM; in assay [3] it was not below 25000 nM.

As for `Cc1nc(C(F)F)nc(C)c1Oc1nc(-c2cncc(Cl)c2)ccc1NS(C)(=O)=O` [Compound I-175], the EC50 in assay [1], in assay [2] and in assay [3] was less than 1000 nM each time.

Consider `Cc1cc(C)c(Oc2nc(-c3cncc(C#N)c3)ccc2NS(C)(=O)=O)c(OC2CC2)n1` [Compound I-176], for which the concentration giving a half-maximal response (EC50) in assay [1], in assay [2] and in assay [3] was less than 1000 nM in each case.

As for `Cc1cc(N2CCC2)nc(C)c1Oc1nc(-c2cncc(C#N)c2)ccc1NS(C)(=O)=O` [Compound I-177], the EC50 in assay [1], in assay [2] and in assay [3] was less than 1000 nM in each case.

Regarding `Cc1nc(OC2CC2)c(C(F)(F)F)cc1Oc1nc(-c2cncc(C#N)c2)ccc1NS(C)(=O)=O` [Compound I-178], the figures for the concentration giving a half-maximal response (EC50) in assay [1], in assay [2] and in assay [3] were less than 1000 nM, more than 25000 nM and less than 1000 nM, respectively.

With `Cc1nc(C2CC2)c(C(F)F)cc1Oc1nc(-c2cncc(C#N)c2)ccc1NS(C)(=O)=O` [Compound I-179], the EC50 in assay [1] is less than 1000 nM; in assay [2], more than 25000 nM; in assay [3], less than 1000 nM.

Regarding `Cc1cc(N2CC(F)(F)C2)nc(C)c1Oc1nc(-c2cncc(C#N)c2)ccc1NS(C)(=O)=O` [Compound I-180], the EC50 in assay [1] was less than 1000 nM; in assay [2] it was more than 25000 nM; in assay [3] it was less than 1000 nM.

On to `Cc1nc(C2CCC2)nc(C)c1Oc1nc(-c2cncc(C#N)c2)ccc1NS(C)(=O)=O` [Compound I-181], for which the EC50 in assay [1], in assay [2] and in assay [3] was less than 1000 nM in each case.

`Cc1cc(Oc2nc(-c3cncc(C#N)c3)ccc2NS(C)(=O)=O)c(C)nc1C(F)(F)F` [Compound I-182]: the concentration for a half-maximal effect (EC50) in assay [1], in assay [2] and in assay [3] was less than 1000 nM throughout.

For `Cc1nc(C2CC2)nc(C)c1Oc1nc(-c2cncc(C#N)c2)ccc1NS(C)(=O)=O` [Compound I-183], the half-maximal effective concentration (EC50) in assay [1], in assay [2] and in assay [3] was less than 1000 nM in each case.

Turning to `Cc1nc(C2CC2)c(C(F)(F)F)cc1Oc1nc(-c2cncc(C#N)c2)ccc1NS(C)(=O)=O` [Compound I-184], the half-maximal effective concentration (EC50) in assay [1], in assay [2] and in assay [3] was less than 1000 nM throughout.

`Cc1cc(C)c(Oc2nc(-c3cncc(N4CC(F)C4)c3)ccc2NS(C)(=O)=O)c(C)n1` [Compound I-185]: the EC50 in assay [1], in assay [2] and in assay [3] was less than 1000 nM in each case.

With `Cc1cc(C)c(Oc2nc(-c3ccn(C)c(=O)c3)ccc2NS(C)(=O)=O)c(C)n1` [Compound I-186], the EC50 was less than 25000 nM in assay [1], more than 25000 nM in assay [2] and not below 25000 nM in assay [3].

In the case of `Cc1cc(C)c(Oc2nc(-c3cc[nH]c(=O)c3)ccc2NS(C)(=O)=O)c(C)n1` [Compound I-187], the concentration giving a half-maximal response (EC50) was not below 25000 nM in assay [1], more than 25000 nM in assay [2] and not below 25000 nM in assay [3].

As for `COc1cc(-c2ccc(NS(C)(=O)=O)c(Oc3c(C)cc(C)nc3C)n2)ccn1` [Compound I-188], the half-maximal effective concentration (EC50) in assay [1] was less than 1000 nM; in assay [2], 1000 to 10000 nM; in assay [3], not below 25000 nM.

On to `Cc1cc(C)c(Oc2nc(-c3cncc(N4CCC4)c3)ccc2NS(C)(=O)=O)c(C)n1` [Compound I-190], for which the EC50 in assay [1], in assay [2] and in assay [3] was less than 1000 nM each time.
